Experimental data reported in US7645603B2, “Cells having cardiac glycoside resistance” (Avaris AB, priority 2003, dated 2010).

Key:
HeLa cells [1] = experiment: Ouabain toxicity assay, transiently transfected HeLa cells, cell viability; type: cell-based, human; details: 10 μM ouabain
Procedure: HeLa cells (ATCC, Manassas, Va.) were cultured in DMEM Glutamax with 10% heat-inactivated fetal bovine serum (FBS). For transfections, Fugene 6 reagent (Roche Boehringer Mannheim, Germany) was used according to manufacturer's description. Briefly, 2 μg of plasmid DNA per 10^5 cells were complexed with 5 μl of the reagent in a 100 μl volume of cell culture medium and added to cells after 15 min of incubation. After 24 h, ouabain was added to each well to a final concentration of 10 μM. Cell viability was documented following 24 h incubation.
(§1) For transfections, Fugene 6 reagent (Roche Boeringer Mannheim, Germany) was used according to the manufacturer's instructions. Briefly, 2 μg of plasmid DNA per 10^5 cells were complexed with 5 μl of the reagent in a 100 μl volume of cell culture medium DMEM Glutamax and added to cells after 15 min of incubation. Ouabain (Sigma, St. Louis, Mo., USA) was dissolved in DMEM as a stock solution of 10 mM. For selection experiments 10-500 μM was used. Ouabain was added to the cells at 24 h after transfection. At 48 hours post transfection the cells were trypsinized and transferred to ouabain-free medium. Cell survival was quantified spectrophoto-metrically using the WST-1 cell proliferation reagent (Roche) according to the manufacturer's instructions.

COS-7 cells = experiment: Ouabain toxicity assay, transiently transfected COS-7 cells, cell viability; type: cell-based; details: wild type COS-7, 10 μM ouabain
Procedure: COS-7 cells (ATCC, Manassas, Va.) were cultured and transfected as above. After 48 h incubation in 10 μM ouabain, the cells were washed twice in PBS (Gibco) and incubated for 15 min in 0.025% porcine trypsine in saline (Sigma). The trypsin was inactivated by FBS addition. The cells were re-incubated in 10 μM ouabain. Cell viability was documented following 48 h incubation.

HeLa cells [2] = experiment: Ouabain dose response assay in transfected HeLa cells, WST-1 cell proliferation reagent; type: cell-based, human; details: 10-500 μM ouabain, 24 hours
Procedure: as §1

With `C[C@@H]1O[C@@H](O[C@H]2C[C@@H](O)[C@]3(CO)[C@H]4[C@H](O)C[C@]5(C)[C@@H](C6=CC(=O)OC6)CC[C@]5(O)[C@@H]4CC[C@]3(O)C2)[C@H](O)[C@H](O)[C@H]1O` [ouabain] the “ouabain induced cell death of wild type cells” value (HeLa cells [1]) was “induces cell death”, the “ouabain induced cell death of wild type cells” value (COS-7 cells) was “induces cell death” and the “effect of ouabain on control and un-transfected cells (WST-1)” value (HeLa cells [2]) was “eliminated”.
